Measured values from the NIST ThermoML archive (doi:10.1016/j.tca.2018.01.008).
± gives the expanded uncertainty stated by the source.

Conditions: 293.15 K; 101.33 kPa; Liquid; transient hot wire

Compound	thermal conductivity [W/m/K]
OCCO [1,2-ethanediol]	0.25 ± 0.004
O [water]	0.597 ± 0.01
